According to article PMC6493301, “Targeting host metabolism by inhibition of acetyl-Coenzyme A carboxylase reduces flavivirus infection in mouse models” (Emerging Microbes & Infections, 2019):
Where two headings read alike, the source gives them in different places.

Key:
WNV [1] = experiment: Virucidal assay, WNV preincubated with compound then titrated by plaque assay; settings: 5 µg/mL, 1 h at 37°C
WNV [2] = experiment: WNV multiplication in Vero cells, virus yield by plaque assay; settings: for EC50: West Nile virus, Vero, 24 h, read-out: EC50 WNV; for SI (CC50/EC50) WNV: calculated at 24 h
human ACC2 = human ACC2 (Homo sapiens, UniProt O00763); experiment: Radiometric ACC inhibition assay, human ACC2; type: biochemical
Experimental: (§1) (-)-Epicgallocathechin gallate, EGCG (catalog no. 0981 S) was from Extrasynthese (Genay, France). […] Apparent permeability was assessed in low-efflux MDCKII cells. In vitro potencies of the inhibitors were determined using a radiometric assay. For tissue culture experiments, drugs were suspended in DMSO. Control cells were treated in parallel with the same amount of DMSO (vehicle). Cell viability was estimated in uninfected cells by ATP measurement using Cell Titer Glo luminescent cell viability assay (catalog no. G7579; Promega, Madison, WI). […] Cells were lysed by adding equal amounts of Cell Titer Glo reagent (100 µL/well) and gentle rocking (2 min) in an orbital shaker. The amount of ATP in each sample was determined by luminescence measurement using white microplates and a TECAN Genius (Zurich, Switzerland) microplate reader.

[3] = Cell viability by ATP measurement (Cell Titer Glo) in uninfected Vero cells; settings: African green monkey
Experimental: as §1

[4] = Apparent permeability in low-efflux MDCKII cells; settings: dog, MDCK
Experimental: as §1

rat ACC2 = rat ACC2 (Rattus norvegicus, UniProt Q1HEC0); experiment: Radiometric ACC inhibition assay, rat ACC2; type: biochemical
Experimental: as §1

human ACC1 = human ACC1 (Homo sapiens, UniProt Q13085); experiment: Radiometric ACC inhibition assay, human ACC1; type: biochemical
Experimental: as §1

rat ACC1 = rat ACC1 (Rattus norvegicus, UniProt P11497); experiment: Radiometric ACC inhibition assay, rat ACC1; type: biochemical
Experimental: as §1

ZIKV = ZIKV multiplication in Vero cells, virus yield by plaque assay; settings: for EC50: Zika virus, Vero, 24 h, read-out: EC50 ZIKV; for SI (CC50/EC50) ZIKV: calculated at 24 h
WNV [5] = experiment: Antiviral activity against WNV in mice, viral burden by quantitative RT-PCR; type: in vivo; settings: CD-1 female mice, 20 mg/kg p.o. twice a day
Experimental: (§2) Pharmacokinetics was analyzed after a single oral (p.o.) dose of the compounds (in a 0.5% methyl cellulose suspension) administered to fasted male mice. […] Antiviral activity in vivo was determined using eight-week-old Swiss albino CD-1 female mice (Envigo, Huntingdon, UK). […] Control mice were treated in parallel with drug vehicle (carboxymethylcellulose). For experiments evaluating the effect of genetic deletion of ACC2 gene on WNV infection, a breeding colony of C57BL/6 ACC2^-/- mice was established from two heterozygous Acab^tm1Dejs females. Age- and sex-matched eight-week-old ACC2^-/- and control wild type (WT) mice were challenged with WNV (1 × 10^4 PFU/animal, i.p.). Animals were monitored daily and received water and food ad libitum.
RNA was automatically extracted using a QIAcube equipment (QIAGEN GmbH, Hilden, Germany) and QIAamp viral RNA Mini Kit (QIAGEN, catalog no. 52906) for sera or RNeasy Mini Kit (QIAGEN, catalog no. 74106) for tissue homogenates. The content of viral RNA in each sample was analyzed by real-time fluorogenic reverse transcriptase PCR by comparison with previously titrated samples and determined as PFU equivalents/mL [22].

[6] = Mouse pharmacokinetics after a single oral dose; type: in vivo; settings: fasted male mice, mean ± SD, n = 3; for Cmax: male, read-out: Cmax, maximum plasma-concentration; for Cmax / AUC / Tmax: mouse, in vivo, po; for AUC: 0.5% methyl cellulose suspension, read-out: AUC(Exp), area under the plasma-concentration-time curve; for Tmax: read-out: Tmax, time to reach the maximum plasma-concentration
Experimental: as §2

DENV = DENV multiplication in Vero cells, virus yield by plaque assay; settings: for EC50: Dengue virus, Vero, 48 h, read-out: EC50 DENV; for SI (CC50/EC50) DENV: calculated at 48 h
WNV [7] = experiment: Time of addition assay, WNV-infected Vero cells; type: cell-based, West Nile virus; settings: 5 µg/mL, MOI 1 PFU/cell, 24 h
[8] = WNV i.p., 7 days post-infection
[9] = single p.o. dose 100 mg/kg, 100 mg/kg
[10] = 100 mg/kg, single p.o. dose 100 mg/kg

Sequence of rat ACC2 (Q1HEC0 17-2455): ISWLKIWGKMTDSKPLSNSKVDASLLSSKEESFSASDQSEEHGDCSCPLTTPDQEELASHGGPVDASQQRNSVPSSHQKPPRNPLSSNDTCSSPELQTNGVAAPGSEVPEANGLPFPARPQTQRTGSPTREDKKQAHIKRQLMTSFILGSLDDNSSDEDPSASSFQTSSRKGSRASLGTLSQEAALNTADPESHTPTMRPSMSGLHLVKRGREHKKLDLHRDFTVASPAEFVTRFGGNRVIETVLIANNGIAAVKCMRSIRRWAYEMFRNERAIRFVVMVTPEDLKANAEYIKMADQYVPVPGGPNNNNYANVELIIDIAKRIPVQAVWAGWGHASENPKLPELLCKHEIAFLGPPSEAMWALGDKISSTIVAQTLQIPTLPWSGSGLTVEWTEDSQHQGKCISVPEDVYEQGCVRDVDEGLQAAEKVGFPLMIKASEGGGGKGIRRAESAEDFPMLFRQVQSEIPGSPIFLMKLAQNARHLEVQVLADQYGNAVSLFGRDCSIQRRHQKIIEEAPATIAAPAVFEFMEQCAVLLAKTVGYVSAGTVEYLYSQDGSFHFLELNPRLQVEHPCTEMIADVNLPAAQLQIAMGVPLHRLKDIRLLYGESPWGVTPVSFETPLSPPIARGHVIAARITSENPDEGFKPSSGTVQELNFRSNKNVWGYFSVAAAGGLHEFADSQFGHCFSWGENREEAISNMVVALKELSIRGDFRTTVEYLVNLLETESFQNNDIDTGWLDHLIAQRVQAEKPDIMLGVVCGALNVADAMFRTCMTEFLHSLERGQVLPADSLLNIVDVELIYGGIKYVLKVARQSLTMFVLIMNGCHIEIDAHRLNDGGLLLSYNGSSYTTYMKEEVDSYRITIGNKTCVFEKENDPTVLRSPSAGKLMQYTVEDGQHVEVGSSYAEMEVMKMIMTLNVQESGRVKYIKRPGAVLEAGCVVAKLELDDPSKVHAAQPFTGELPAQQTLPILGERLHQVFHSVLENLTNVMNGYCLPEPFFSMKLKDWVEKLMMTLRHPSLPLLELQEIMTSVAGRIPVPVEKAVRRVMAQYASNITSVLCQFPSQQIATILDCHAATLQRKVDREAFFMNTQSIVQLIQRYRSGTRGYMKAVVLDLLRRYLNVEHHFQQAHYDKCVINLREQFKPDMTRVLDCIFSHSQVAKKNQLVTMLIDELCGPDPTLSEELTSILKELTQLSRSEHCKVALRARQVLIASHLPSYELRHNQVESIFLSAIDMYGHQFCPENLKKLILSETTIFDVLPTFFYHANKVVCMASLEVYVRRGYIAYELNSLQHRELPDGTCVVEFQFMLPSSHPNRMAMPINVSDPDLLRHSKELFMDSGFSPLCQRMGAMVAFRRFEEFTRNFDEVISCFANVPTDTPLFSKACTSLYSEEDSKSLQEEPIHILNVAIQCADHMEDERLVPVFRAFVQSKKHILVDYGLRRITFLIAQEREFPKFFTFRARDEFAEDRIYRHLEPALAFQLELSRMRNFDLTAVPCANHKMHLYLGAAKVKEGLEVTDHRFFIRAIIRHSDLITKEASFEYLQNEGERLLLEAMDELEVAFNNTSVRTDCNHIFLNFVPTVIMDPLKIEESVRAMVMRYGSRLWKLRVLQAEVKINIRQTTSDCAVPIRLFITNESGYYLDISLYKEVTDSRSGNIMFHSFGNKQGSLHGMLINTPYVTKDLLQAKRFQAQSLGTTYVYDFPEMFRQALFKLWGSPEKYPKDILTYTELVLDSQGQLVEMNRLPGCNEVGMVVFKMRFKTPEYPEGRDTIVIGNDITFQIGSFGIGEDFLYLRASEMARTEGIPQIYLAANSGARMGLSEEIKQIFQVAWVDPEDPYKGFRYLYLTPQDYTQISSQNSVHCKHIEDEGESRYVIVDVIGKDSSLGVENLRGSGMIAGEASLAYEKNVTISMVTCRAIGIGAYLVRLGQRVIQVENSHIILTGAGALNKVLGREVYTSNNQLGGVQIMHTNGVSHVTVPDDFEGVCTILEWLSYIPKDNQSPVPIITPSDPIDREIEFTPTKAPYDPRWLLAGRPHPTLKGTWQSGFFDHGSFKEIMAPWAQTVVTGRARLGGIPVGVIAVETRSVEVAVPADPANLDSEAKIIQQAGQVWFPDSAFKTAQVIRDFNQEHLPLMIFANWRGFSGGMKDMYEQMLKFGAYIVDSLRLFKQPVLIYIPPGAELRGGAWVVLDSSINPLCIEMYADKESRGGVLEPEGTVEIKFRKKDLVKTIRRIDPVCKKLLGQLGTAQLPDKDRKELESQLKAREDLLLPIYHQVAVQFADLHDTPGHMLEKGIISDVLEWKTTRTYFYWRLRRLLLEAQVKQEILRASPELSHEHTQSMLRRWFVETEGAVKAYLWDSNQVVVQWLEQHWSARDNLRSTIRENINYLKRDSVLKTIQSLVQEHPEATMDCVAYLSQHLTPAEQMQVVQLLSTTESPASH
Sequence of human ACC2 (O00763 whole entry): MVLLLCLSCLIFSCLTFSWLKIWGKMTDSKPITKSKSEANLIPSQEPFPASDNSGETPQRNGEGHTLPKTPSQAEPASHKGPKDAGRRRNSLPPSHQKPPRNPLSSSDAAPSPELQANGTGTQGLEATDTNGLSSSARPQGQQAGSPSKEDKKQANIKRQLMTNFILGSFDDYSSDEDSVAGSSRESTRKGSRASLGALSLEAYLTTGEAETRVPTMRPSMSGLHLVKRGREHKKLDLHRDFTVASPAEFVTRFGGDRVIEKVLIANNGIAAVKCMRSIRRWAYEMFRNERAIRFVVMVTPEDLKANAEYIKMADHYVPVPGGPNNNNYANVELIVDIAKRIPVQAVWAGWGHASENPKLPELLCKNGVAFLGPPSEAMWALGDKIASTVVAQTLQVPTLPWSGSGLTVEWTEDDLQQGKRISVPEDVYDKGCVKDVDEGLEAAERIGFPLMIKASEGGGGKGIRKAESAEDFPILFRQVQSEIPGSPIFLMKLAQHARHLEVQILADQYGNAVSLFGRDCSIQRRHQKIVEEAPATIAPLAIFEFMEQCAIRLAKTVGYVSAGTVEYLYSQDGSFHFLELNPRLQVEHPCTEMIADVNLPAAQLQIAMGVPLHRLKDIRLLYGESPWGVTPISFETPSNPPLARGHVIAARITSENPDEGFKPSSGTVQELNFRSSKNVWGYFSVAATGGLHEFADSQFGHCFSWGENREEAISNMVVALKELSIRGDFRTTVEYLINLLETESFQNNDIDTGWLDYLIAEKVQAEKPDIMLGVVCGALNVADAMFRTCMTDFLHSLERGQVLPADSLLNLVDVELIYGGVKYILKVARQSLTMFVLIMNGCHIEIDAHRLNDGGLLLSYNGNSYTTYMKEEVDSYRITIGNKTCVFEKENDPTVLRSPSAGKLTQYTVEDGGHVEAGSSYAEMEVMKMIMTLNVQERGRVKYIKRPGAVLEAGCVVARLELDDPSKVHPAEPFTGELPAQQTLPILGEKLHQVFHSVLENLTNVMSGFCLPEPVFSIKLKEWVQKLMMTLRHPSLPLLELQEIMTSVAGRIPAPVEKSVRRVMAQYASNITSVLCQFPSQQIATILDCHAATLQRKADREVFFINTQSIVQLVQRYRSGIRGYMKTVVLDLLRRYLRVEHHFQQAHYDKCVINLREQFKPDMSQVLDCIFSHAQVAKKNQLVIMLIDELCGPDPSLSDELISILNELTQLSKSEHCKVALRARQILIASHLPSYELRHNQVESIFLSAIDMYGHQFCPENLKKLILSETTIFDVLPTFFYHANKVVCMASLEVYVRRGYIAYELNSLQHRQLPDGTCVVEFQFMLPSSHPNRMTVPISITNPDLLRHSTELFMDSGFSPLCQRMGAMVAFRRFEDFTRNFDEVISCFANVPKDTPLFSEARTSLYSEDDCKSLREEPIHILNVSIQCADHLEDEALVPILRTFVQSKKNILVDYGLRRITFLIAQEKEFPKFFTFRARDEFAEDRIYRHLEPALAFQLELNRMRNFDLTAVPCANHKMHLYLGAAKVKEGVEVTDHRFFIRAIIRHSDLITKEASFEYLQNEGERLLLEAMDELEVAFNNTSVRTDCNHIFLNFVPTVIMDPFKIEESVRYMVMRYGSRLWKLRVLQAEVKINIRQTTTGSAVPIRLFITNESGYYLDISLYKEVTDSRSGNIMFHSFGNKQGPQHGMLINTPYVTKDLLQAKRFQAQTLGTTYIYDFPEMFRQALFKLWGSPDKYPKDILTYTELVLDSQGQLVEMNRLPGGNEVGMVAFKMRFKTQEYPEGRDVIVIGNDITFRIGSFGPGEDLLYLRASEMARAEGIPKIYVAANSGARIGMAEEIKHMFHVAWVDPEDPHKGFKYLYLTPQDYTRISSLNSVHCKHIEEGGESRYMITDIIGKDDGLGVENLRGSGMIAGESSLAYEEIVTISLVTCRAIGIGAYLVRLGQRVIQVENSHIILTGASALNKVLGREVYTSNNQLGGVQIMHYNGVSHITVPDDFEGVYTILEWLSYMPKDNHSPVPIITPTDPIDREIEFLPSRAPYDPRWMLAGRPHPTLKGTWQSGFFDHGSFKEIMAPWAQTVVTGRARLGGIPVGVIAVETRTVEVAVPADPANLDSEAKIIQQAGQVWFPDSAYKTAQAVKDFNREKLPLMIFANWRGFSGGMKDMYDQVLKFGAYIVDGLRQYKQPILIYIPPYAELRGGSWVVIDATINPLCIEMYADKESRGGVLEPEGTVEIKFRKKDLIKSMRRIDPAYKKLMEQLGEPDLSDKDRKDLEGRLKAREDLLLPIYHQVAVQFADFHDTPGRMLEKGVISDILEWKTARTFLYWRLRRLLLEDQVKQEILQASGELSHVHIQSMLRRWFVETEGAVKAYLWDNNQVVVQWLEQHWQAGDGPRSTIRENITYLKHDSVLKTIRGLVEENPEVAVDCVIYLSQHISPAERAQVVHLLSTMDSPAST

SMILES | Virucidal effect, remaining WNV infectivity (WNV [1]) | EC50 (WNV [2]) [µM] | CC50 at 24 h [3] [µM] | CC50 at 48 h [3] [µM] | Papp [4] [×10⁻⁶ cm/s] | IC50 (rat ACC2) [µM] | IC50 (rat ACC1) [µM] | EC50 (ZIKV) [µM] | EC50 (DENV) [µM] | WNV yield, drug added only 1 h before virus inoculation (pre-infection) (WNV [7]) | SI (CC50/EC50) WNV (WNV [2]) | IC50 (human ACC2) [µM] | IC50 (human ACC1) [µM] | SI (CC50/EC50) ZIKV (ZIKV) | Cmax, maximum plasma-concentration [6, 9] [ng/mL] | Cmax [6, 10] [ng/mL] | AUC ([6]; single p.o. dose 100 mg/kg) [ng·h/mL] | Tmax ([6]; single p.o. dose 100 mg/kg) [min] | SI (CC50/EC50) DENV (DENV) | also measured
O=C(O[C@@H]1Cc2c(O)cc(O)cc2O[C@@H]1c1cc(O)c(O)c(O)c1)c1cc(O)c(O)c(O)c1 [EGCG, (-)-Epicgallocathechin gallate, reference compound] | virucidal effect |  |  |  |  |  |  |  |  |  |  |  |  |  |  |  |  |  |  | 
Cc1nc2ccc(C(=O)N3CCC4(CC3)CC(=O)c3c(cnn3C(C)C)C4)cc2[nH]1 [PF-05175157] | Lack of virucidal effect | 2.7 ± 1.3 | 590 ± 37 | 236 ± 11 | 7 | 0.05 ± 0.003 | 0.024 ± 0.001 | < 1.2 | 1 ± 0.3 | did not affect WNV infection |  |  |  |  |  |  |  |  |  | IC50 (human ACC2; radiometric assay, geometric mean ± SEM, n = 3, read-out: IC50 human ACC2): 0.033 ± 0.004 µM; IC50 (human ACC1; radiometric assay, geometric mean ± SEM, n = 3, read-out: IC50 human ACC1): 0.027 ± 0.003 µM; Viral load in plasma (serum) vs vehicle (WNV [5]; WNV 1 × 10^4 PFU i.p., 3 and 4 days after infection): significant reduction of viral load in plasma; Viral RNA in the kidney vs vehicle (WNV [5]; [8]): significant reduction in the amount of viral RNA in the kidney; Viral RNA in the lung vs vehicle (WNV [5]; [8]): tendency for a reduction in the amount of viral RNA in the lung; Cmax ([6]; 15 mg/kg, single p.o. dose 15 mg/kg): 903 ± 495 ng/mL; AUC ([6]; single p.o. dose 15 mg/kg): 2170 ± 384 ng·h/mL; Tmax ([6]; single p.o. dose 15 mg/kg): 100 ± 121 min; WNV yield, drug maintained after virus inoculation (post-infection) (WNV [7]): reduced viral production
CC(C)n1ncc2c1C(=O)CC1(CCN(C(=O)c3cc4ncccc4[nH]3)CC1)C2 [PF-05206574] | Lack of virucidal effect | 1.9 ± 0.9 | > 1280 | 415 ± 67 | 19 | 0.018 ± 0.004 | 0.014 ± 0.003 | < 1.3 | < 1.3 | reduced the infection | >672 | 0.022 ± 0.009 | 0.019 ± 0.004 | >982 | 760 ± 240 | 760 to 1070 | 3700 ± 1440 | 23 ± 12 | >319 | 
COc1ccc2ncc(C(=O)N3CCC4(CC3)CC(=O)c3c(cnn3C(C)C)C4)cc2c1 [PF-06256254] | Lack of virucidal effect | < 1.2 | 718 ± 314 | 202 ± 22 | 24 | 0.015 | 0.011 | < 1.2 | 1.5 ± 0.4 | reduced the infection | >598 | 0.01 ± 0.002 | 0.01 ± 0.002 | >598 | 1070 ± 452 | 760 to 1070 | 2900 ± 1070 | 33 ± 25.8 | 135 | 
